Drawing on patent publication US9416126B2, “Compounds inhibiting leucine-rich repeat kinase enzyme activity” (Merck Sharp & Dohme Corp., priority 2013, dated 2016), this text covers IC50 for 29 compounds.

Sequence of LRRK2(G2019S mutation, GST-LRRK2(amino acids 970-2527)) (Q5S007 970-2527 G2019S): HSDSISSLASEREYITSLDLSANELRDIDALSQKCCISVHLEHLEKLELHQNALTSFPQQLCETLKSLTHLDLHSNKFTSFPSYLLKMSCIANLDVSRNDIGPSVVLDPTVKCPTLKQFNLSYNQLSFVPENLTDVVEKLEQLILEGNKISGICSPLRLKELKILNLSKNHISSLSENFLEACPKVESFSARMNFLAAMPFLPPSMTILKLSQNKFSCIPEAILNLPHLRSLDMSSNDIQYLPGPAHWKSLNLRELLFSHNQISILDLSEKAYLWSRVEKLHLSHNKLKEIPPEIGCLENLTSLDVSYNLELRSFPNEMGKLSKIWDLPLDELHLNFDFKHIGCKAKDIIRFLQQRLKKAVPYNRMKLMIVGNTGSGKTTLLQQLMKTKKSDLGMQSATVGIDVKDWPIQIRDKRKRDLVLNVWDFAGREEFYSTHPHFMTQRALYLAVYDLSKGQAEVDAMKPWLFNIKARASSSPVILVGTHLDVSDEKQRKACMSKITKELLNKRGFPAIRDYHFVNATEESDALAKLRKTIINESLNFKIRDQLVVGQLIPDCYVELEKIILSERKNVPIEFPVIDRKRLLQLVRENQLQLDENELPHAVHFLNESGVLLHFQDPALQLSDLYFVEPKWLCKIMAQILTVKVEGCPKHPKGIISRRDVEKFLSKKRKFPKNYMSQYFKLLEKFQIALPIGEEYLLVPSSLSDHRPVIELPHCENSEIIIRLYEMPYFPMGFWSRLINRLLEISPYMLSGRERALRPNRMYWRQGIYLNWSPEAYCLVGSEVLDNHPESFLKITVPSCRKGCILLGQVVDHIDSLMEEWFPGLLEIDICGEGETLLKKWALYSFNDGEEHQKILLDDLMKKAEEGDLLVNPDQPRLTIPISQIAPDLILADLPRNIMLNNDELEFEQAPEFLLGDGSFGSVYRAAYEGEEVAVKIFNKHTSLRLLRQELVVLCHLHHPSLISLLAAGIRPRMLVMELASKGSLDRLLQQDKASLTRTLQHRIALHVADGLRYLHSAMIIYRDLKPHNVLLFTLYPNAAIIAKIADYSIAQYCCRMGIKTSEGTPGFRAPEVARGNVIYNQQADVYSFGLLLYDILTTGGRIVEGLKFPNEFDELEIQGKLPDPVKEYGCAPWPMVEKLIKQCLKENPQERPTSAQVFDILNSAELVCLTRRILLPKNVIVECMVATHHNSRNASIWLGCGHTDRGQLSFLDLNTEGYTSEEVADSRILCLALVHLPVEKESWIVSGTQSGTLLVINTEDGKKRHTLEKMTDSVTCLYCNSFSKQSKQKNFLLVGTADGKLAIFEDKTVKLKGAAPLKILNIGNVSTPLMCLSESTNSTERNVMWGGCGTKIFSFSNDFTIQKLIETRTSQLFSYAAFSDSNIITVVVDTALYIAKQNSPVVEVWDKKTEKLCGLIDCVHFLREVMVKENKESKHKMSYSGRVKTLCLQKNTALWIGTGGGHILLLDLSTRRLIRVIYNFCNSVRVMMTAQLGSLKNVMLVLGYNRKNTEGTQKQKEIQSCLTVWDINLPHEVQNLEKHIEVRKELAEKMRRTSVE

One assay has as its target LRRK2(G2019S mutation, GST-LRRK2(amino acids 970-2527)) (Homo sapiens (Human), UniProt Q5S007, G2019S). The experiment in a line: LRRK2 Km ATP LanthaScreen Assay. The class given is biochemical. The following applies: Examples N1-N25. Put shortly:
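TR-FRET: GST-LRRK2 970-2527 G2019S (2.5 nM solution) preincubated 30 min with compound (98 μM top, 1:2.15 dilutions), then 800 nM fluorescein-LRRKtide and 184 μM ATP solution added for 60 min at room temperature in Tris pH 8.5 buffer. Stopped with EDTA and Tb anti-phospho-LRRKtide antibody; IC50 is a mean of several tests.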
A general note: Time-resolved FRET reads energy transfer from a long-lived donor to a nearby acceptor.
Take `CC(C)Oc1cc2c(-c3cc(N4CCS(=O)(=O)CC4)ncn3)n[nH]c2cc1F` [Example N19]: 24 nM corresponded to half-maximal inhibition (IC50).
With `Cc1nc2c(o1)CCN(c1cc(-c3n[nH]c4cc(F)c(OC(C)C)cc34)ncn1)C2` [Example N14], the IC50 (as a rule, the concentration that inhibits the measured activity by half) was found to be 6.4 nM.

Staying with this assay, now noted: Examples O1-O23.
`COC[C@H](C)Oc1ccc2[nH]nc(-c3cc(N4CCC5(CC4)CNC(=O)CO5)ncn3)c2c1` [Example O23] yielded an IC50 of 3.5 nM.
For `COC[C@H](C)Oc1ccc2[nH]nc(-c3cc(N4CCN(C5CC5)CC4)ncn3)c2c1` [Example O11], the IC50 is 4.1 nM.

The assay is the same for the next values; noted with them: Examples Q1-Q20.
For the compound `COc1ncccc1-c1ccc2[nH]nc(-c3cc(N4C[C@@H](C)O[C@@H](C)C4)ncn3)c2c1` [Example Q2], the IC50 turned out to be 158 nM.
Take `C[C@@H]1CN(c2cc(-c3n[nH]c4ccc(-c5ccc(C#N)cc5)cc34)ncn2)C[C@H](C)O1` [Example Q18]: inhibition was half-maximal at 177 nM (IC50).
Same read-out and setting: with `Cc1cncc(-c2ccc3[nH]nc(-c4cc(N5C[C@@H](C)O[C@@H](C)C5)ncn4)c3c2)c1` [Example Q4] the figure was 2.2 nM.

Still in this assay, the particulars now being: Km ATP (184 μM ATP solution), G2019S LRRK2, mean IC50.
As to `CC(C)Oc1ccc2[nH]nc(-c3cc(N4CCC(O)(C(F)(F)F)CC4)ncn3)c2c1` [Example K12], the IC50 turned out to be 10.5 nM.
Same read-out and setting: with `C[C@H]1CN(c2cc(-c3n[nH]c4ccc(-c5cnn(C)c5)cc34)ncn2)CCO1` [Example M12] the figure was 2.2 nM; with `COC[C@H](C)Oc1ccc2[nH]nc(-c3cc(N4CCO[C@H](C)C4)ncn3)c2c1` [Example H17], 2.79 nM; with `COC[C@H](C)Oc1ccc2[nH]nc(-c3cc(N4CCC5(CCCO5)CC4)ncn3)c2c1` [Example H14], 2.02 nM.
Compound `CC(C)Oc1ccc2[nH]nc(-c3cc(N4CCCN(S(C)(=O)=O)CC4)ncn3)c2c1` [Example J11] displayed an IC50 of 51.3 nM.
In the case of `COC[C@@H](C)Oc1ccc2[nH]nc(-c3cc(N4C[C@@H](C)O[C@@H](C)C4)ncn3)c2c1` [Example H2], the IC50 came out at 39.1 nM.
The compound `CC(C)Oc1cc2c(-c3cc(N4CCN(CCO)CC4)ncn3)n[nH]c2cc1F` [Example D62] returned an IC50 of 1.65 nM.
On to `CC(C)Oc1cc2c(-c3cc(N4CCN(C(=O)C5CC5)CC4)ncn3)n[nH]c2cc1F` [Example D65], for which the IC50 was found to be 2.98 nM.
As for `COC[C@H](C)Oc1ccc2[nH]nc(-c3cc(N4CCC5(CCC(=O)N5)CC4)ncn3)c2c1` [Example H9], the IC50 came to 4.36 nM.
In the case of `CC(C)Oc1ccc2[nH]nc(-c3cc(N4CCN(C(=O)c5ccco5)CC4)ncn3)c2c1` [Example K2], the IC50 is 8.7 nM.
In the case of `CO[C@H]1CCN(c2cc(-c3n[nH]c4ccc(OC(C)C)cc34)ncn2)C1` [Example D31], the half-inhibitory concentration (IC50) was 8.79 nM.
`Cn1cc(-c2cc3c(-c4cc(N5CC[S+]([O-])CC5)ncn4)n[nH]c3cc2F)cn1` [Example L8] came in with an IC50 of 131 nM.
Consider `CC(C)Oc1ccc2[nH]nc(-c3cc(N4CC(n5cccn5)C4)ncn3)c2c1` [Example J12], for which it took 22.6 nM to reach half-maximal inhibition (IC50).
`COCCOc1ccc2[nH]nc(-c3cc(N4CCO[C@H](C)C4)ncn3)c2c1` [Example G10] registered an IC50 of 42.8 nM.
Still for that read-out and setting: then `CC(C)Oc1ccc2[nH]nc(-c3cc(N4CCN(S(C)(=O)=O)CC4)ncn3)c2c1` [Example D7], with 7.99 nM; and `CC(C)Oc1ccc2[nH]nc(-c3cc(N4CCC(C#N)CC4)ncn3)c2c1` [Example K8], with 7.2 nM.
Compound `CC(C)Oc1cc2c(-c3cc(N4C[C@H](O)[C@@H](O)[C@@H]4C)ncn3)n[nH]c2cc1F` [Example D57] had an IC50 of 15.5 nM.
The same measure, in the same setting: with `CC(C)=Cc1ccc2[nH]nc(-c3cc(N4CCN(C)CC4)ncn3)c2c1` [Example S3] the figure was 32.9 nM.
As to `CCOc1ccc2[nH]nc(-c3cc(N4CCN(CC)C(=O)C4)ncn3)c2c1` [Example F9], the IC50 came out at 16.7 nM.

Still in this assay, the particulars now being: Table U.
Regarding `CC1(C)CC(=O)C=C(c2ccc3[nH]nc(-c4cc(N5CCC(F)(F)CC5)ncn4)c3c2)C1` [Example U5], half-maximal inhibition (IC50) required 7.08 nM.
Regarding `O=C1C=C(c2ccc3[nH]nc(-c4cc(N5CCOCC5)ncn4)c3c2)CCC1` [Example U17], 1.63 nM corresponded to half-maximal inhibition (IC50).
Turning to `FC1(F)CCN(c2cc(-c3n[nH]c4ccc(-c5ccoc5)cc34)ncn2)CC1` [Example U1], the IC50 stood at 86.2 nM.
